Target: EED-EZH2 (Homo sapiens (Human), UniProt O75530)
Test: EED-EZH2 AlphaScreen assay
Type: binding
Settings: 8.7 nM EZH2, 5.0 nM EED, read-out: IC50 Potency Code
Protocol: Biological activity of exemplary substituted pyrrolidones and piperidones was determined by the EED-EZH2 AlphaScreen assay according the following methodology.
EZH2 (non-complexed), His-GST-tags
Anti-FLAG AlphaLISA Acceptor Beads
AlphaScreen GSH Donor Beads
Assay Protocol (Calculated for 384 Wells or 1 Plate)
• 1. Thaw EED and EZH2 proteins on ice. • 2. Prepare 1× HMT Buffer 2: • 1.5 mL of 4× HMT Buffer 2+4.5 mL ddH2O. • 3. Prepare 1.2× EED-EZH2 solution in 1× HMT Buffer 2: 3.4 mL total • 2.1 uL of EED (0.41 mg/mL, 8.04 uM, 1:1608 dilution)+14 uL of EZH2 (0.24 mg/mL, 2.11 uM, 1:243 dilution)+3.384 mL of 1× HMT Buffer 2 • 4. Prepare 1.2× EZH2 solution in 1× HMT Buffer 2 (positive control): 0.168 mL total • 0.69 uL of EZH2 (0.24 mg/mL, 2.11 uM, 1:243 dilution)+167 uL of 1× HMT Buffer 2 • 5. Add 10 μL of 1.2× EED-EZH2 or 1.2× EZH2 solution to each well. • 6. Add compounds in DMSO via Echo transfer and 30 nL DMSO for control wells. • 7. Centrifuge at 15,000 rpm for 10 seconds and allow to incubate at rt for 1 hour. Step Two • 1. Prepare 6× Anti-FLAG and GSH Donor beads in 1× HMT Buffer 2 in the dark: 1 mL total • 10 uL of Anti-FLAG (1:100 dilution)+5 uL of GSH Donor (1:200 dilution)+985 uL of 1× HMT Buffer 2 • 2. Add 2 μL of bead solution to each well. • 3. Centrifuge at 15,000 rpm for 10 seconds and allow to incubate at rt for 1 hour in the dark. • 4. Read plate. Final Concentrations: • 12 μL volume per well • 8.7 nM EZH2 • 5.0 nM EED • DMSO<0.5% Calculations: • 1. Average EZH2 only wells (positive control) and subtract from all other wells. • 2. Average EED-EZH2 only wells (negative control) to indicate 100% signal or 0% inhibition. • 3. Normalize each well to the average 100% signal from step 2. • 4. Report either as normalized % inhibition or normalized % signal. • Use GraphPad to Calculate IC50.

EED-EZH2, sequence (O75530 2-441): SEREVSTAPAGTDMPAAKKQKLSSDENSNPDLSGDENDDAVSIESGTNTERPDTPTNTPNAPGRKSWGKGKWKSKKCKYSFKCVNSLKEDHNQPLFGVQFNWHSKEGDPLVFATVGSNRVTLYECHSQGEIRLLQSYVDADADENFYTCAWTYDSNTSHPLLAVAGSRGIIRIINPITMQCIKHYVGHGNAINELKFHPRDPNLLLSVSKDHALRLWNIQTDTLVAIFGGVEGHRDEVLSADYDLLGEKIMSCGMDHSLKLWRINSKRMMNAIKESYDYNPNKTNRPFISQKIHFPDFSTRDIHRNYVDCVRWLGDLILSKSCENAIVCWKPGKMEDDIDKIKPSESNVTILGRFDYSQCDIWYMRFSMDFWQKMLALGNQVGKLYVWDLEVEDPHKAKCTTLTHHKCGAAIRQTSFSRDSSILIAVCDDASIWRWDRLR

Structure (SMILES) | IC50 [µM]
Cc1ccc(O)c(C(=O)NC2CC(=O)N(Cc3ccccc3[N+](=O)[O-])C2)c1 (stereo not drawn) [NUCC-0202653] | 1 to 10
COc1ccc(C)cc1C(=O)NC1CC(=O)N(Cc2ccccc2[N+](=O)[O-])C1 (stereo not drawn) [NUCC-0202654] | > 50
COc1cccc(CC(=O)NC2CC(=O)N(Cc3ccccc3[N+](=O)[O-])C2)c1 (stereo not drawn) [NUCC-0202655] | > 50
Cc1c(C(=O)NC2CC(=O)N(Cc3ccccc3[N+](=O)[O-])C2)cccc1[N+](=O)[O-] (stereo not drawn) [NUCC-0202656] | > 50
O=C(NC1CC(=O)N(Cc2ccccc2[N+](=O)[O-])C1)c1cccnc1 (stereo not drawn) [NUCC-0202657] | > 50
O=C(O)c1ccccc1C(=O)NC1CC(=O)N(Cc2ccccc2[N+](=O)[O-])C1 (stereo not drawn) [NUCC-0202658] | > 50
N#Cc1cccc(C(=O)NC2CC(=O)N(Cc3ccccc3[N+](=O)[O-])C2)c1 (stereo not drawn) [NUCC-0202659] | > 50
COc1cccc(CC(=O)NC2CC(=O)N(Cc3ccccc3C(F)(F)F)C2)c1 (stereo not drawn) [NUCC-0202661] | > 50
O=C(NC1CC(=O)N(Cc2ccccc2C(F)(F)F)C1)c1cccnc1 (stereo not drawn) [NUCC-0202663] | > 50
O=C(NC1CC(=O)N(Cc2ccccc2C(F)(F)F)C1)c1cccc(-c2ccccc2)c1 (stereo not drawn) [NUCC-0202667] | > 50
O=C(NC1CC(=O)N(Cc2ccccc2C(F)(F)F)C1)c1ccc2cc[nH]c2c1 (stereo not drawn) [NUCC-0202671] | > 50
Cc1ccc(O)c(C(=O)NC2CC(=O)N(Cc3ccc(Cl)c(Cl)c3)C2)c1 (stereo not drawn) [NUCC-0202672] | 10 to 50
COc1ccc(C)cc1C(=O)NC1CC(=O)N(Cc2ccc(Cl)c(Cl)c2)C1 (stereo not drawn) [NUCC-0202673] | > 50
O=C(NC1CC(=O)N(Cc2ccc(Cl)c(Cl)c2)C1)c1ccccc1O (stereo not drawn) [NUCC-0202674] | > 50
O=C(NC1CC(=O)N(Cc2ccc(Cl)c(Cl)c2)C1)c1cccnc1 (stereo not drawn) [NUCC-0202675] | > 50
O=C(O)c1ccccc1C(=O)NC1CC(=O)N(Cc2ccc(Cl)c(Cl)c2)C1 (stereo not drawn) [NUCC-0202676] | > 50
O=C(NC1CC(=O)N(Cc2ccc(Cl)c(Cl)c2)C1)c1cccc(-c2ccccc2)c1 (stereo not drawn) [NUCC-0202677] | > 50
Cc1cccc(C(=O)NC2CC(=O)N(Cc3ccc(Cl)c(Cl)c3)C2)c1 (stereo not drawn) [NUCC-0202678] | > 50
Cc1ccc(O)c(C(=O)N(C)C2CC(=O)N(Cc3ccccc3C(F)(F)F)C2)c1 (stereo not drawn) [NUCC-0202747] | > 50

Structure (SMILES) | IC50 [µM]
O=C(NC1CC(=O)N(Cc2ccccc2C(F)(F)F)C1)c1cnon1 (stereo not drawn) [NUCC-0202755] | > 50
O=C(Cc1cc2ccccc2[nH]1)NC1CC(=O)N(Cc2ccccc2C(F)(F)F)C1 (stereo not drawn) [NUCC-0202756] | > 50
O=C(NC1CC(=O)N(Cc2ccccc2C(F)(F)F)C1)c1ccnc(Cl)n1 (stereo not drawn) [NUCC-0202757] | > 50
O=C(NC1CC(=O)N(Cc2ccccc2C(F)(F)F)C1)c1ccc2ccccc2n1 (stereo not drawn) [NUCC-0202758] | > 50
O=C(NC1CC(=O)N(Cc2ccccc2C(F)(F)F)C1)c1cscn1 (stereo not drawn) [NUCC-0202759] | > 50
Cn1nccc1C(=O)NC1CC(=O)N(Cc2ccccc2C(F)(F)F)C1 (stereo not drawn) [NUCC-0202764] | > 50
O=C1CC(Nc2n[nH]c3ccccc23)CN1Cc1ccccc1C(F)(F)F (stereo not drawn) [NUCC-0202766] | > 50
O=C(NC1CC(=O)N(Cc2ccccc2C(F)(F)F)C1)c1cc(Cl)nc2ccccc12 (stereo not drawn) [NUCC-0202792] | > 50
Cc1ccc(O)c(S(=O)(=O)NC2CC(=O)N(Cc3ccccc3C(F)(F)F)C2)c1 (stereo not drawn) [NUCC-0202835] | > 50
CC(C)(CO)C(=O)NC1CC(=O)N(Cc2ccccc2C(F)(F)F)C1 (stereo not drawn) [NUCC-0202851] | > 50
Cc1ccc(O)c(C(=O)NC2CC(=O)N(Cc3ccccc3C(=O)O)C2)c1 (stereo not drawn) [NUCC-0202966] | 1 to 10
COC(=O)c1ccccc1CN1CC(NC(=O)c2cc(C)ccc2O)CC1=O (stereo not drawn) [NUCC-0202967] | 1 to 10
Cc1ccc(O)c(C(=O)Nc2ccc(=O)n(Cc3ccccc3C(F)(F)F)c2)c1 [NUCC-0202969] | > 50
CC(=O)N1CCCC(CN2CC(NC(=O)c3cc(C)ccc3O)CC2=O)C1 (stereo not drawn) [NUCC-0202970] | 10 to 50
COc1ccc(CN2C[C@@H](NC(=O)c3cc(C)ccc3O)CC2=O)c(OC)c1 [NUCC-0202972] | 10 to 50
Cc1ccc(O)c(C(=O)N[C@H]2CC(=O)N(Cc3ccccc3Cl)C2)c1 [NUCC-0202973] | 10 to 50
Cc1ccc(O)c(C(=O)N[C@H]2CC(=O)N(Cc3ccc(C(F)(F)F)cc3)C2)c1 [NUCC-0202974] | > 50
Cc1ccc(O)c(C(=O)N[C@H]2CC(=O)N(Cc3ccc(Cl)c(Cl)c3)C2)c1 [NUCC-0202975] | 10 to 50
Cc1ccc(O)c(C(=O)N[C@H]2CC(=O)N(C3CCc4ccccc43)C2)c1 (stereo partly drawn) [NUCC-0202976] | > 50

Further lines, results first:

IC50 [µM] | Structure (SMILES)
1 to 10 | Cc1ccc(O)c(C(=O)NC2CC(=O)N(Cc3ccccc3C(F)(F)F)C2)c1 (stereo not drawn) [NUCC-0163358]
10 to 50 | COc1ccc(C)cc1C(=O)NC1CC(=O)N(Cc2ccccc2C(F)(F)F)C1 (stereo not drawn) [NUCC-0202660]
> 50 | Cc1c(C(=O)NC2CC(=O)N(Cc3ccccc3C(F)(F)F)C2)cccc1[N+](=O)[O-] (stereo not drawn) [NUCC-0202662]
> 50 | O=C(O)c1ccccc1C(=O)NC1CC(=O)N(Cc2ccccc2C(F)(F)F)C1 (stereo not drawn) [NUCC-0202666]
> 50 | Cc1cccc(C(=O)NC2CC(=O)N(Cc3ccccc3C(F)(F)F)C2)c1 (stereo not drawn) [NUCC-0202668]
> 50 | O=C(NC1CC(=O)N(Cc2ccccc2C(F)(F)F)C1)c1ccccc1O (stereo not drawn) [NUCC-0202669]
> 50 | O=C(NC1CC(=O)N(Cc2ccccc2C(F)(F)F)C1)c1ccc(Cl)c(Cl)c1 (stereo not drawn) [NUCC-0202670]
> 50 | O=C(NC1CC(=O)N(Cc2ccccc2C(F)(F)F)C1)c1cccc2cc[nH]c12 (stereo not drawn) [NUCC-0202749, N-(5-oxo-1-(2-(trifluoromethyl)benzyl)pyrrolidin-3-yl)-1H-indole-7-carboxamide]
> 50 | Cc1ccc(C(=O)NC2CC(=O)N(Cc3ccccc3C(F)(F)F)C2)c(O)c1 (stereo not drawn) [NUCC-0202750]
> 50 | Cc1cccc(C(=O)NC2CC(=O)N(Cc3ccccc3C(F)(F)F)C2)c1O (stereo not drawn) [NUCC-0202751]
> 50 | CC(C)(C)c1ccc(O)c(C(=O)NC2CC(=O)N(Cc3ccccc3C(F)(F)F)C2)c1 (stereo not drawn) [NUCC-0202752]
> 50 | CCc1ccc(O)c(C(=O)NC2CC(=O)N(Cc3ccccc3C(F)(F)F)C2)c1 (stereo not drawn) [NUCC-0202753]
> 50 | Cc1ccc(O)cc1C(=O)NC1CC(=O)N(Cc2ccccc2C(F)(F)F)C1 (stereo not drawn) [NUCC-0202754]
> 50 | O=C(NC1CC(=O)N(Cc2ccccc2C(F)(F)F)C1)c1coc2ccccc12 (stereo not drawn) [NUCC-0202760]
10 to 50 | O=C(NC1CC(=O)N(Cc2ccccc2C(F)(F)F)C1)c1ccc2ccccc2c1O (stereo not drawn) [NUCC-0202761]
> 50 | O=C(NC1CC(=O)N(Cc2ccccc2C(F)(F)F)C1)c1ccc(Cl)nc1Cl (stereo not drawn) [NUCC-0202762]

IC50 [µM] | Structure (SMILES)
> 50 | O=C(NC1CC(=O)N(Cc2ccccc2C(F)(F)F)C1)c1ccccc1F (stereo not drawn) [NUCC-0202763]
> 50 | O=C(NC1CC(=O)N(Cc2ccccc2C(F)(F)F)C1)c1ccc(Br)c(O)c1 (stereo not drawn) [NUCC-0202765]
> 50 | Cc1ccc(N)c(C(=O)NC2CC(=O)N(Cc3ccccc3C(F)(F)F)C2)c1 (stereo not drawn) [NUCC-0202793]
> 50 | Cc1ccc(O)c(C(=O)NC2CC(=O)N(Cc3ccccc3C(F)(F)F)C2)c1 (stereo not drawn) [NUCC-0202826]
> 50 | Cc1cccc(O)c1C(=O)NC1CC(=O)N(Cc2ccccc2C(F)(F)F)C1 (stereo not drawn) [NUCC-0202827]
> 50 | Cc1c[nH]c(=O)c(C(=O)NC2CC(=O)N(Cc3ccccc3C(F)(F)F)C2)c1 (stereo not drawn) [NUCC-0202828]
10 to 50 | O=C(NC1CC(=O)N(Cc2ccccc2C(F)(F)F)C1)c1cc2ccccc2cc1O (stereo not drawn) [NUCC-0202830]
10 to 50 | COc1ccc(O)c(C(=O)NC2CC(=O)N(Cc3ccccc3C(F)(F)F)C2)c1 (stereo not drawn) [NUCC-0202831]
1 to 10 | O=C(NC1CC(=O)N(Cc2ccccc2C(F)(F)F)C1)c1cc(F)ccc1O (stereo not drawn) [NUCC-0202832]
1 to 10 | O=C(NC1CC(=O)N(Cc2ccccc2C(F)(F)F)C1)c1cc(Cl)ccc1O (stereo not drawn) [NUCC-0202833]
1 to 10 | O=C(NC1CC(=O)N(Cc2ccccc2C(F)(F)F)C1)c1cc(Br)ccc1O (stereo not drawn) [NUCC-0202834]
10 to 50 | O=C(NC1CC(=O)N(Cc2ccccc2C(F)(F)F)C1)c1cc(I)ccc1O (stereo not drawn) [NUCC-0202852]
1 to 10 | O=C(NC1CC(=O)N(Cc2ccccc2C(F)(F)F)C1)c1cc(C(F)(F)F)ccc1O (stereo not drawn) [NUCC-0202965]
> 50 | Cc1ccc(O)c(C(=O)NC2CC(=O)N(Cc3ccccc3C(F)(F)F)C2)n1 (stereo not drawn) [NUCC-0202968]
1 to 10 | Cc1ccc(O)c(C(=O)NC2CCC(=O)N(Cc3ccccc3C(F)(F)F)C2)c1 (stereo not drawn) [NUCC-0202971]

Reference: US11919855B2, “Substituted pyrrolidones and piperidones as small molecule inhibitors of EZH2 and EED protein binding” (Northwestern University, priority 2021, dated 2024)
